Test results as given in BigSolDB 2.1.

C[C@@H]1CC[C@H]2[C@@H](C)C(=O)O[C@@H]3O[C@@]4(C)CC[C@@H]1[C@]32OO4
solubility (mole fraction)
Conditions	283.15 K	288.15 K	293.15 K	298.15 K	303.15 K	308.15 K	313.15 K	318.15 K	323.15 K
in acetone	0.00388	0.0051	0.00673	0.00863	0.0114	0.0145	0.0181	0.0223	0.0278
in acetonitrile	0.000198	0.000257	0.000356	0.000518	0.000723	0.00103	0.00143	0.00196	0.0027
in chloroform	0.0487	0.0613	0.0795	0.101	0.127	0.157	0.193	0.236	0.287
in cyclohexane	0.00044	0.000585	0.000745	0.00106	0.00137	0.00171	0.00209	0.00265	0.00341
in ethyl acetate	0.00525	0.00786	0.0117	0.0153	0.0205	0.0282	0.0377	0.0499	0.0657
in methanol	0.000559	0.000773	0.00111	0.00145	0.00195	0.00267	0.00375	0.00477	0.00622
in toluene	0.0375	0.0435	0.052	0.0603	0.0711	0.0815	0.0937	0.107	0.122
